Laboratory results as given in ChEMBL document CHEMBL3259641, “Identification of tertiary sulfonamides as RORc inverse agonists” (Bioorg Med Chem Lett, 2014).

How the values were obtained:
[1] = target: T1, Nuclear receptor ROR-beta (Homo sapiens, UniProt Q92753); assay: Inverse agonist activity at human GAL4-fused RORb expressed in HEK293 cells after 5 hrs by luciferase reporter gene based transcriptional assay; type: cell-based
T1 sequence (Q92753 whole entry): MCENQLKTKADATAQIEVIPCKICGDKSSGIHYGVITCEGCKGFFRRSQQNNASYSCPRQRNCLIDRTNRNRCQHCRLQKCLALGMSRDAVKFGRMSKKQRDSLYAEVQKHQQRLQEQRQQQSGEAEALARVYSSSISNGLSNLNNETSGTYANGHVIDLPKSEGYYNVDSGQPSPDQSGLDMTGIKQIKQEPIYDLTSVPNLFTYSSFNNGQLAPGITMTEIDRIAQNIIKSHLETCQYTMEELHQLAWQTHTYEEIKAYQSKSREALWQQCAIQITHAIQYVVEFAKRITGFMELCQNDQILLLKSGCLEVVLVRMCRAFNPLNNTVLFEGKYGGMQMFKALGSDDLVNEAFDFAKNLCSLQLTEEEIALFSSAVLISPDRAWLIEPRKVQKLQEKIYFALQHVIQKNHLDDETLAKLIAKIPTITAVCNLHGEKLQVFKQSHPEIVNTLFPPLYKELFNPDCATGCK

[2] = target: T2, Nuclear receptor ROR-alpha (Homo sapiens, UniProt P35398); assay: Inverse agonist activity at human GAL4-fused RORa expressed in HEK293 cells after 5 hrs by luciferase reporter gene based transcriptional assay; type: cell-based
T2 sequence (P35398 whole entry): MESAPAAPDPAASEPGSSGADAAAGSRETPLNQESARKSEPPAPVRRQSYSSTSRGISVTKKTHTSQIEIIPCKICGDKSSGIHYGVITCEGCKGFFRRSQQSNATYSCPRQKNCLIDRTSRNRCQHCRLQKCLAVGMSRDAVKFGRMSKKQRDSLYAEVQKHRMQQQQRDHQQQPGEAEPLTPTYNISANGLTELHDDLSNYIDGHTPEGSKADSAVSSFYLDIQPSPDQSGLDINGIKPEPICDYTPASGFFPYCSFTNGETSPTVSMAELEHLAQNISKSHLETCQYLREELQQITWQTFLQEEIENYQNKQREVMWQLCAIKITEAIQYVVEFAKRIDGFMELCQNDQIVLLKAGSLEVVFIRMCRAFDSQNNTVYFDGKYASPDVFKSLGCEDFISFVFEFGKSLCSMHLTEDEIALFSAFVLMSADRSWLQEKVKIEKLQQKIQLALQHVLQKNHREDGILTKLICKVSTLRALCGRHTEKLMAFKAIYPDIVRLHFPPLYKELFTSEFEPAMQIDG

[3] = target: T3, Oxysterols receptor LXR-alpha (Homo sapiens, UniProt Q13133); assay: Inverse agonist activity at human GAL4-fused LXRalpha expressed in HEK293 cells assessed as inhibition of T0901317-induced transcriptional activity after 5 hrs by luciferase reporter gene assay; type: cell-based
T3 sequence (Q13133 whole entry): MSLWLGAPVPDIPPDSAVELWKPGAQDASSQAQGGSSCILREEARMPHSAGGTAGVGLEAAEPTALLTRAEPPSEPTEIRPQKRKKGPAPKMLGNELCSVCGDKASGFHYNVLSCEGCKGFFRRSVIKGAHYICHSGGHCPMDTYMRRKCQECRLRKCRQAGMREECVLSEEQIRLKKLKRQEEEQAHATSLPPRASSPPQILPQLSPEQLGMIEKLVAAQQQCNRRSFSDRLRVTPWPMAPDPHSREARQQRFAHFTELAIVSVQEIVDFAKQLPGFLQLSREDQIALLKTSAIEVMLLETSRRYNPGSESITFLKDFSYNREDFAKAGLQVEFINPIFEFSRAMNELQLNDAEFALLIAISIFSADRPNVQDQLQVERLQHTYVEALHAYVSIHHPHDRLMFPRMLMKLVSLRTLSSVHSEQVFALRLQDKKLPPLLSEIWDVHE

[4] = target: T4, Oxysterols receptor LXR-beta (Homo sapiens, UniProt P55055); assay: Inverse agonist activity at human GAL4-fused LXRbeta expressed in HEK293 cells assessed as inhibition of T0901317-induced transcriptional activity after 5 hrs by luciferase reporter gene assay; type: cell-based
T4 sequence (P55055 whole entry): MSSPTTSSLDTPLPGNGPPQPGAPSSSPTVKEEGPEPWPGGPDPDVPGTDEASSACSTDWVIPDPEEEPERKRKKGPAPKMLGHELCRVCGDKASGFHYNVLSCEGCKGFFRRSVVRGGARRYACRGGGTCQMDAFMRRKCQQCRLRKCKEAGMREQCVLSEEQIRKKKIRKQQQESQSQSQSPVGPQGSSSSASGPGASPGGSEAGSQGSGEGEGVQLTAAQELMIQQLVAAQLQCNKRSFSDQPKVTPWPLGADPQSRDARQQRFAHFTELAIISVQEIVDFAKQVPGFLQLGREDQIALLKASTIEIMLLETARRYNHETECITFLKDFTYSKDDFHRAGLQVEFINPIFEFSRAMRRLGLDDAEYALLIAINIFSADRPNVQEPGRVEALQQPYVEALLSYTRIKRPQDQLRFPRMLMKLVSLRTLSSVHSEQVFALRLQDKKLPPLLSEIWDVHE

[5] = target: T5, Nuclear receptor ROR-gamma (Homo sapiens, UniProt P51449); assay: Displacement of [3H2]25-hydroxycholesterol from human RORc-LBD after 3 hrs by scintillation counting
T5 sequence (P51449 whole entry): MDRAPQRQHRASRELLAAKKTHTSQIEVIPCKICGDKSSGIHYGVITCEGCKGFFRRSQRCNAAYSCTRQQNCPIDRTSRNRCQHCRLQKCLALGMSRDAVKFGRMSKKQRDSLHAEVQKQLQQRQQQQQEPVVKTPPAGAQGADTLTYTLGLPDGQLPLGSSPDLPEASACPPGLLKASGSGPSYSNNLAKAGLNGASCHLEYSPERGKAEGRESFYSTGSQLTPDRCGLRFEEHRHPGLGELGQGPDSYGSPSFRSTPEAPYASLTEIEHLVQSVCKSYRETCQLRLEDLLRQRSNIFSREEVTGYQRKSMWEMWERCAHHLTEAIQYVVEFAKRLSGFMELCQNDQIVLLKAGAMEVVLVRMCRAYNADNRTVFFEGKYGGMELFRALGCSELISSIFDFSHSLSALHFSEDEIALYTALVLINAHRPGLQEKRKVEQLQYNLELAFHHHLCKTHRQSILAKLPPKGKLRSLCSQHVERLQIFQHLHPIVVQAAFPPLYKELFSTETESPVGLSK

[6] = target: T5, Nuclear receptor ROR-gamma; assay: Inverse agonist activity at an N-terminal 6xHis-GST-tag human RORc-LBD assessed as inhibition of recruitment of the SRC1 co-activator peptide after 3 hrs by time-resolved FRET assay; type: functional

| EC50 [1] | EC50 [2] | EC50 [3] | EC50 [4] | IC50 [5] | EC50 [6] | SMILES |
| --- | --- | --- | --- | --- | --- | --- |
| 5 µM | 4.2 µM |  |  |  |  | CC(C)CN(Cc1ccc(-c2cccc(S(C)(=O)=O)c2)s1)S(=O)(=O)Cc1ccccc1 |
| 2.2 µM | 2.8 µM | 3.7 µM | 3.9 µM |  |  | CC(C)CN(Cc1ccc(-c2ccc(S(C)(=O)=O)cc2)s1)S(=O)(=O)Cc1ccccc1 |
|  |  |  |  | > 10 µM |  | CC(C)CN(Cc1ccc(-c2ccc(C#N)nc2)s1)S(=O)(=O)Cc1ccccc1 |
|  |  |  |  | > 10 µM | > 10 µM | CC(C)CN(Cc1cnc(-c2ccc(S(C)(=O)=O)cc2)s1)S(=O)(=O)Cc1ccccc1 |
|  |  |  |  | > 10 µM | > 10 µM | CC(C)CN(Cc1cccc(-c2ccc(S(C)(=O)=O)cc2)c1)S(=O)(=O)Cc1ccccc1 |
| 3.7 µM | 3.8 µM | 3.6 µM | 3.8 µM |  |  | CC(C)CN(Cc1ccc(-c2ccc(NS(C)(=O)=O)cc2)cc1)S(=O)(=O)Cc1ccccc1 |
| > 10 µM | > 10 µM | > 10 µM | > 10 µM |  |  | CC(C)CN(Cc1ccc(-c2ccc(C(N)=O)cc2)cc1)S(=O)(=O)Cc1ccccc1 |
